# Source: PubChem BioAssay (NCI)
#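 Following 48 hours of exposure in 96-well plates, responses at five concentrations were used to interpolate endpoints linearly. GI50: concentration for 50% inhibition of growth. The concentration for full growth arrest is given as TGI.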 Where a SMILES comes first, the peptide text is derived from it. [ ]: non-standard residue; d: D form. The star is where a group is joined. X13 = OC[C@H](CC1CCCCC1)N*; dIva = CC[C@@](C)(N)C(=O)O; Aib = CC(C)(N)C(=O)O
# Legend:
# Assay in all cases: NCI tumour cell line growth inhibition, 48 h
# HL-60(TB) leukemia = tested on: HL-60(TB) leukemia
# ACHN renal = tested on: ACHN renal
# OVCAR-5 ovarian = tested on: OVCAR-5 ovarian
# SK-MEL-2 melanoma = tested on: SK-MEL-2 melanoma
# CCRF-CEM leukemia = tested on: CCRF-CEM leukemia
# SF-268 CNS = tested on: SF-268 CNS
# RPMI-8226 leukemia = tested on: RPMI-8226 leukemia
# OVCAR-4 ovarian = tested on: OVCAR-4 ovarian
# HCT-15 colon = tested on: HCT-15 colon
# OVCAR-8 ovarian = tested on: OVCAR-8 ovarian
# HS 578T breast = tested on: HS 578T breast
# NCI-H522 lung = tested on: NCI-H522 lung
# SK-MEL-28 melanoma = tested on: SK-MEL-28 melanoma
# K-562 leukemia = tested on: K-562 leukemia
# SF-539 CNS = tested on: SF-539 CNS
# SF-295 CNS = tested on: SF-295 CNS
# SNB-19 CNS = tested on: SNB-19 CNS
# PC-3 prostate = tested on: PC-3 prostate
# MOLT-4 leukemia = tested on: MOLT-4 leukemia
# UACC-257 melanoma = tested on: UACC-257 melanoma
# MCF7 breast = tested on: MCF7 breast
# HOP-62 NSCLC = tested on: HOP-62 NSCLC
# A549 NSCLC = tested on: A549 NSCLC
# U251 CNS = tested on: U251 CNS
# IGROV1 ovarian = tested on: IGROV1 ovarian
# COLO 205 colon = tested on: COLO 205 colon
smiles,measurement,setting,value
CC[C@@](C)(NC(=O)C(C)(C)NC(=O)[C@@H](NC(=O)[C@@H]1CCCN1C(=O)C(C)(C)NC(=O)[C@H](CC(C)C)NC(=O)CNC(=O)C(C)(C)NC(=O)[C@@H](NC(=O)C(C)(C)NC(=O)[C@H](CCC(N)=O)NC(=O)[C@H](C)NC(=O)C(C)(C)NC(=O)[C@H](C)NC(=O)C(C)(C)NC(=O)[C@H](C)NC(=O)C(C)(C)NC(C)=O)C(C)C)C(C)C)C(=O)N[C@@H](CCC(N)=O)C(=O)N[C@@H](CCC(N)=O)C(=O)N[C@H](CO)CC1CCCCC1 (Ac-[Aib]A[Aib]A[Aib]AQ[Aib]V[Aib]GL[Aib]PV[Aib][dIva]QQ-X13),GI50,HL-60(TB) leukemia,1.44 µM
same,TGI,HL-60(TB) leukemia,4.02 µM
same,GI50,ACHN renal,> 5 µM
same,TGI,ACHN renal,> 5 µM
same,GI50,OVCAR-5 ovarian,2.84 µM
same,TGI,OVCAR-5 ovarian,> 5 µM
same,GI50,SK-MEL-2 melanoma,1.22 µM
same,TGI,SK-MEL-2 melanoma,3.83 µM
same,GI50,CCRF-CEM leukemia,2.79 µM
same,TGI,CCRF-CEM leukemia,> 5 µM
same,GI50,SF-268 CNS,1.74 µM
same,TGI,SF-268 CNS,> 5 µM
same,GI50,RPMI-8226 leukemia,0.198 µM
same,TGI,RPMI-8226 leukemia,1.87 µM
same,GI50,OVCAR-4 ovarian,2.82 µM
same,TGI,OVCAR-4 ovarian,> 5 µM
same,GI50,HCT-15 colon,> 5 µM
same,TGI,HCT-15 colon,> 5 µM
same,GI50,OVCAR-8 ovarian,> 5 µM
same,TGI,OVCAR-8 ovarian,> 5 µM
same,GI50,HS 578T breast,1.81 µM
same,TGI,HS 578T breast,> 5 µM
same,GI50,NCI-H522 lung,1.28 µM
same,TGI,NCI-H522 lung,> 5 µM
same,GI50,SK-MEL-28 melanoma,2.04 µM
same,TGI,SK-MEL-28 melanoma,> 5 µM
same,GI50,K-562 leukemia,1.78 µM
same,TGI,K-562 leukemia,> 5 µM
same,GI50,SF-539 CNS,1.49 µM
same,TGI,SF-539 CNS,> 5 µM
same,GI50,SF-295 CNS,> 5 µM
same,TGI,SF-295 CNS,> 5 µM
same,GI50,SNB-19 CNS,1.38 µM
same,TGI,SNB-19 CNS,> 5 µM
same,GI50,PC-3 prostate,1.32 µM
same,TGI,PC-3 prostate,> 5 µM
same,GI50,MOLT-4 leukemia,2.65 µM
same,TGI,MOLT-4 leukemia,> 5 µM
same,GI50,UACC-257 melanoma,1 µM
same,TGI,UACC-257 melanoma,4.41 µM
same,GI50,MCF7 breast,0.281 µM
same,TGI,MCF7 breast,> 5 µM
same,GI50,HOP-62 NSCLC,> 5 µM
same,TGI,HOP-62 NSCLC,> 5 µM
same,GI50,A549 NSCLC,3 µM
same,TGI,A549 NSCLC,> 5 µM
same,GI50,U251 CNS,1.49 µM
same,TGI,U251 CNS,> 5 µM
same,GI50,IGROV1 ovarian,2.65 µM
same,TGI,IGROV1 ovarian,> 5 µM
same,GI50,COLO 205 colon,1.47 µM
same,TGI,COLO 205 colon,> 5 µM
